{"source": "paper PMC11206987", "about": "“Investigation of the Efficacy of Benzylidene-3-methyl-2-thioxothiazolidin-4-one Analogs with Antioxidant Activities on the Inhibition of Mushroom and Mammal Tyrosinases” (Molecules, 2024)", "key": {"[1]": {"molecular_target": "T1, B16F10 cellular tyrosinase (Mus musculus, UniProt P11344)", "T1 construct": "host or cells: B16F10 cells", "T1 sequence (P11344 19-533)": "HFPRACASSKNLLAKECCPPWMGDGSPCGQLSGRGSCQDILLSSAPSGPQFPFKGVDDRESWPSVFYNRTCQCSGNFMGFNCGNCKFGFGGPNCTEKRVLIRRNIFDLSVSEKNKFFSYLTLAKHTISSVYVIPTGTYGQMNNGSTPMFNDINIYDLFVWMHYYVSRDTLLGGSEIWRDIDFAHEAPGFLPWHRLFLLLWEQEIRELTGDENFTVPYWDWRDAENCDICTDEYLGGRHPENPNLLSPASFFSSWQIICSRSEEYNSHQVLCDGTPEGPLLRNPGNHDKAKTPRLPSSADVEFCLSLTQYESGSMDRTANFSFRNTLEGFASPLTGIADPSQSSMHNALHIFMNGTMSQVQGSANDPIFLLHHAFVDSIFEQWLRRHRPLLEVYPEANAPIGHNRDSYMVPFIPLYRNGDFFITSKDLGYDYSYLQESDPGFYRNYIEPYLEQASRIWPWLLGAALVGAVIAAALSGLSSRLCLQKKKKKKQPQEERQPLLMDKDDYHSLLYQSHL", "assay": "Cellular tyrosinase activity assay in B16F10 cells stimulated with IBMX plus α-MSH", "type": "cell-based, murine", "details": "72 h", "experimental": "Analogs 1, 3, and 5 were exposed to B16F10 cells at various concentrations (20, 10, 5, and 0 µM) before exposure to IBMX (200 µM; 3-isobutyl-1-methylxanthine) and α-MSH (1 µM; α-melanocyte-stimulating hormone). After incubation (72 h), B16F10 cellular tyrosinase activity was determined. […] It was examined whether the cellular tyrosinase inhibition of the BMTTZD analogs could influence B16F10 cellular melanin contents.\nEffects on B16F10 tyrosinase inhibition were evaluated as previously described. A 6-well plate containing 1 × 10^5 B16F10 cells/well was cultivated for 23 h under conditions identical to those of the cell culture. […] The cells were cultivated for 72 h. After washing 2 times with PBS, the cells were lysed in a 100 µL lysis buffer, including phenylmethylsulfonyl fluoride (5 µL; 1 mM), Triton X-100 (5 µL; 1%), and phosphate buffer (90 µL; 50 mM (pH 6.5)). After 30 min incubation at −80 °C, the cell lysates were centrifuged at 4 °C for 30 min. The supernatants (80 µL) of the lysates were moved to each well of a microplate and mixed with 20 µL 10 mM L-dopa."}, "B16F10 cells": {"system": "B16F10 cells", "assay": "Melanin content assay in B16F10 cells", "type": "cell-based, murine", "details": "72 h", "experimental": "We examined whether the ability of analogs 1, 3, and 5 to inhibit intracellular tyrosinase activity could affect intracellular melanin levels. B16F10 cells were utilized as mammalian cells. IBMX and α-MSH were used at 200 µM and 1 µM, respectively, to increase melanin biosynthesis. […] For the intracellular melanin content determination, the absorbance at 405 nm was evaluated after 72 h of incubation.\nThe effect of BMTTZD analogs on melanin biosynthesis was investigated following a previously described method. A 6-well microplate containing 1 × 10^5 B16F10 cells/well was cultivated for 23 h under conditions identical to those of the cell culture. […] After exposure to IBMX and α-MSH, B16F10 cells were cultivated for 72 h at 37 °C. The cells were rinsed 2 times with PBS, treated with 1N-NaOH aqueous solution (100 µL), and cultivated at 60 °C for 1 h. The lysates were moved to a microplate. At 405 nm, the well absorbance was measured utilizing a VersaMax® reader. Each experiment was carried out three times independently."}, "[2]": {"assay": "ABTS+ radical scavenging activity assay", "details": "100 µM", "experimental": "Second, the ability of BMTTZD analogs to scavenge ABTS^+ radicals was examined. ABTS^+ radicals were obtained via the oxidation of ABTS using potassium persulfate. All samples (Trolox (positive control) and 1–8) were tested at 100 µM.\nThe ability of the BMTTZD analogs to scavenge ABTS^+ radicals was assessed as previously described, with minor modifications. To a 50 mL tube were added 20 mL aqueous K2S2O8 solution (2.45 mM) and 20 mL aqueous ABTS solution (7 mM). The combined mixture was placed at 22 °C in a place without light for 17 h to generate the ABTS^+ radicals. For adequate absorbance control (0.70 ± 0.02 at 734 nm), methanol was added to the combined mixture. Test compounds (Trolox and analogs 1–8; 10 µL in 10% DMSO/90% EtOH [v/v] solution) were mixed with 90 µL ABTS^+ radical solution. After storage in a place without light for 2 min, the well absorbance at 734 nm was acquired for 10 min every 1 min by using a microplate reader (VersaMax®). All test compounds were tested at 100 µM. The activity of the analogs was compared to that of Trolox."}}, "data": [{"smiles": "CN1C(=O)/C(=C/c2ccc(O)cc2O)SC1=S", "note": "[Analog 3, (Z)-5-(2,4-Dihydroxybenzylidene)-3-methyl-2-thioxothiazolidin-4-one]", "values": [{"measurement": "effect on stimulator-induced cellular tyrosinase activity", "setting": "[1]; 5, 10, 20 µM, IBMX plus α-MSH", "result": "concentration-dependently and significantly reduced"}, {"measurement": "cellular tyrosinase inhibition compared with kojic acid (20 µM)", "setting": "[1]; analog at 10 µM", "result": "slightly more strongly than kojic acid"}, {"measurement": "cellular tyrosinase inhibition compared with kojic acid (20 µM)", "setting": "[1]; analog at highest concentration tested (20 µM)", "result": "stronger inhibitory effects than kojic acid"}, {"measurement": "decrease of intracellular melanin contents", "setting": "B16F10 cells; 20 µM, IBMX plus α-MSH (raised melanin 4.4-fold)", "result": 2.0, "unit": "fold"}, {"measurement": "effect on intracellular melanin contents enhanced by IBMX plus α-MSH", "setting": "B16F10 cells; 5, 10, 20 µM", "result": "significantly reduced the melanin contents"}, {"measurement": "ABTS^+ radical scavenging activity", "setting": "[2]", "result": 95, "unit": "%"}]}]}
